# Measured values reported in patent US12275731B2, “Azaindole inhibitors of wild-type and mutant forms of LRRK2” (DANA-FARBER CANCER INSTITUTE, INC., priority 2018, dated 2025).
# Key:
# Assay in all cases: KinomeScan profiling
# Format in all cases: binding
# CDK4-cyclinD1 = CDK4-cyclinD1 (Homo sapiens, UniProt P11802); conditions: CDK4-cyclinD1, 1 μM; read-out: % control
# Method in brief: (§1)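 Test agents were profiled at a single concentration of 1 μM (DMSO vehicle) on a near-complete set of 468 kinases. Signal is reported relative to vehicle (100%) and a fully displacing control (0%).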
# CSNK1G2 = CSNK1G2 (Homo sapiens, UniProt P78368); conditions: CSNK1G2, 1 μM; read-out: % control
# Method in brief: as §1
# GSK3A = GSK3A (Homo sapiens, UniProt P49840); conditions: read-out: % control
# Method in brief: as §1
# MAP3K3 = target: T1, MAP3K3 (Homo sapiens, UniProt Q99759); conditions: MAP3K3, 1 μM; read-out: % control
# T1 sequence (Q99759 1-626): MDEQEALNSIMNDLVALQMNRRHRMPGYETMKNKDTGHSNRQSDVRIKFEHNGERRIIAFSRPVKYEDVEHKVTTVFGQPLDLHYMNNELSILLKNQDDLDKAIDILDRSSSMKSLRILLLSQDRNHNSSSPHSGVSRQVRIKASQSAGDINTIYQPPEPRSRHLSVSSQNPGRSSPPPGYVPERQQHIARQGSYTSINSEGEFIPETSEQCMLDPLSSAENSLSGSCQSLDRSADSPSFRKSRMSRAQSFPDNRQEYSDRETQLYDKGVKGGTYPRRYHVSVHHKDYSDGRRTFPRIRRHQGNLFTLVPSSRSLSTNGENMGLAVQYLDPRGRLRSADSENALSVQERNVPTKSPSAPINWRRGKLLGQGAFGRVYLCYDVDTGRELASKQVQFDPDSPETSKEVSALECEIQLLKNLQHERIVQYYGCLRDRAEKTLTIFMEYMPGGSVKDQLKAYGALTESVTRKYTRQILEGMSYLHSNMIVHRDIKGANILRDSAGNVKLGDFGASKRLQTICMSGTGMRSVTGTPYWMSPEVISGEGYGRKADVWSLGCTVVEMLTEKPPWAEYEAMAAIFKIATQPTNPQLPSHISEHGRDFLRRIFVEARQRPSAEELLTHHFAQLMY
# Method in brief: as §1
# PIK3CB = target: T2, PIK3CB (Homo sapiens, UniProt P42338); conditions: read-out: % control
# T2 construct: purchased KinomeScan® (panel service)
# Method in brief: as §1
# PIK3CD = target: T3, PIK3CD (Homo sapiens, UniProt O00329); conditions: read-out: % control
# T3 construct: purchased KinomeScan® (panel service)
# T3 sequence (O00329 1-1044): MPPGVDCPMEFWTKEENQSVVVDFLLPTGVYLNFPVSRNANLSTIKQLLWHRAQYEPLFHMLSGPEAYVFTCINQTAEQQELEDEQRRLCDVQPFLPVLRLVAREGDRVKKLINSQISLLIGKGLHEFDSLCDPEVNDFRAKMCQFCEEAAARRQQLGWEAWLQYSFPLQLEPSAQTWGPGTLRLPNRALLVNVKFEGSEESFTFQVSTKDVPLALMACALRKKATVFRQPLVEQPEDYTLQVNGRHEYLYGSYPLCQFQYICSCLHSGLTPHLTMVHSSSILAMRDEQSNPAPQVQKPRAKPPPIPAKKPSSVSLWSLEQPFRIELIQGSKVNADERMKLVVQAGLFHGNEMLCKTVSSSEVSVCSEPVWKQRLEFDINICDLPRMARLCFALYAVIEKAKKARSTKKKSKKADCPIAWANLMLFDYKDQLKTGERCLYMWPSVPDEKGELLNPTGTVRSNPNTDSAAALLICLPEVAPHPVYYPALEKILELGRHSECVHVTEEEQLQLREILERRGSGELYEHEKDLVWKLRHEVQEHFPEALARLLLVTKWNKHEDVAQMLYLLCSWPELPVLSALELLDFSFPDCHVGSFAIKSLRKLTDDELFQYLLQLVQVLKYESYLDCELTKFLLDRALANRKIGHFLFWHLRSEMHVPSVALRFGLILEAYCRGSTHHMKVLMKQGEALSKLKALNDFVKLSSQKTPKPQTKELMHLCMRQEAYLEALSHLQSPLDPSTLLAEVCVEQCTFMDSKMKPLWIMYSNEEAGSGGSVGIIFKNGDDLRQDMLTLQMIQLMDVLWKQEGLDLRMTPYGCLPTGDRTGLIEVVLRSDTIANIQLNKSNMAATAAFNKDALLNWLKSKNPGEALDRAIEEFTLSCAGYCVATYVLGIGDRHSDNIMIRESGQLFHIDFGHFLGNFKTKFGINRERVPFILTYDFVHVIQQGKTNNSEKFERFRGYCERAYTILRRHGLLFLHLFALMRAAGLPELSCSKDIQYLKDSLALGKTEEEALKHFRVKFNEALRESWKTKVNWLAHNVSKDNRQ
# Method in brief: as §1
# RIOK1 = target: T4, RIOK1 (Homo sapiens, UniProt Q9BRS2); conditions: RIOK1, 1 μM; read-out: % control
# T4 sequence (Q9BRS2 1-568): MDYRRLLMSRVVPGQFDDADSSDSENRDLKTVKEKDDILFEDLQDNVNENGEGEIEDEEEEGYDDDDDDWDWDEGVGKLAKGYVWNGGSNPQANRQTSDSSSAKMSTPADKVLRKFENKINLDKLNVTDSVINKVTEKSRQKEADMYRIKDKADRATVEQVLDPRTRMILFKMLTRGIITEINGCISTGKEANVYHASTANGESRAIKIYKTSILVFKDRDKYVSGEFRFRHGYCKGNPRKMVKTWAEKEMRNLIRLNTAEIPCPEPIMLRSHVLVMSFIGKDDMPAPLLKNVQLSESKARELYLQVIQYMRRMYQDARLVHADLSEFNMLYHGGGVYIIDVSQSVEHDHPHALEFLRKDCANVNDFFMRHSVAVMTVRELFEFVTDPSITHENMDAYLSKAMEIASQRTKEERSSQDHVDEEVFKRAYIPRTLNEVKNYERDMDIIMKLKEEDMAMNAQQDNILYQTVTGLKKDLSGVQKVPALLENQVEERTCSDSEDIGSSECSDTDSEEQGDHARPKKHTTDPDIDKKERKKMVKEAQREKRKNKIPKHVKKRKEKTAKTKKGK
# Method in brief: as §1
# VRK2 = VRK2 (Homo sapiens, UniProt Q86Y07); conditions: VRK2, 1 μM; read-out: % control
# Method in brief: as §1
# Sequence of CSNK1G2 (P78368 whole entry): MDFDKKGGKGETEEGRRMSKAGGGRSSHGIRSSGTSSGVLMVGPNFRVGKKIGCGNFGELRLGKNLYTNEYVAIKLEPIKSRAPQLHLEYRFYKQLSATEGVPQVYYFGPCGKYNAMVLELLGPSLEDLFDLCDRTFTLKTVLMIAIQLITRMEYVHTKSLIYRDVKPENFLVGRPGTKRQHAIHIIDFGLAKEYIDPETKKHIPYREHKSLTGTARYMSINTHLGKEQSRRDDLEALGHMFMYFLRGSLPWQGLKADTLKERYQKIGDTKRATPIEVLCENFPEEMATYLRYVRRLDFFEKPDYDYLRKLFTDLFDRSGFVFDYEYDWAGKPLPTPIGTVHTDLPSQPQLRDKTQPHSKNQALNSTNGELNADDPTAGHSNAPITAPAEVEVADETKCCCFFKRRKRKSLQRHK
# Sequence of VRK2 (Q86Y07 whole entry): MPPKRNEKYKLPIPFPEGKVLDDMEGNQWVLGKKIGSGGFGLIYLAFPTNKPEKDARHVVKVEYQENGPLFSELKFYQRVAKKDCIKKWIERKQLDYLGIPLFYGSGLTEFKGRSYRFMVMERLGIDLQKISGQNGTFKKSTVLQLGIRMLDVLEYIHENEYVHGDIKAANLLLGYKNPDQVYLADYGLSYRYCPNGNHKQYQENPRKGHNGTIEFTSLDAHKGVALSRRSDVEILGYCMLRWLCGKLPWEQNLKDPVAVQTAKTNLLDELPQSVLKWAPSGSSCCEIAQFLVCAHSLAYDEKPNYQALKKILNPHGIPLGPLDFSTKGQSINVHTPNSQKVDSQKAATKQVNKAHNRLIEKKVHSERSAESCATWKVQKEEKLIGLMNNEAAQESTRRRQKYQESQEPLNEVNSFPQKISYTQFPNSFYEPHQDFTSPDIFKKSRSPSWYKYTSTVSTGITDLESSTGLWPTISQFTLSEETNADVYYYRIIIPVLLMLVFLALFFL
# Sequence of GSK3A (P49840 whole entry): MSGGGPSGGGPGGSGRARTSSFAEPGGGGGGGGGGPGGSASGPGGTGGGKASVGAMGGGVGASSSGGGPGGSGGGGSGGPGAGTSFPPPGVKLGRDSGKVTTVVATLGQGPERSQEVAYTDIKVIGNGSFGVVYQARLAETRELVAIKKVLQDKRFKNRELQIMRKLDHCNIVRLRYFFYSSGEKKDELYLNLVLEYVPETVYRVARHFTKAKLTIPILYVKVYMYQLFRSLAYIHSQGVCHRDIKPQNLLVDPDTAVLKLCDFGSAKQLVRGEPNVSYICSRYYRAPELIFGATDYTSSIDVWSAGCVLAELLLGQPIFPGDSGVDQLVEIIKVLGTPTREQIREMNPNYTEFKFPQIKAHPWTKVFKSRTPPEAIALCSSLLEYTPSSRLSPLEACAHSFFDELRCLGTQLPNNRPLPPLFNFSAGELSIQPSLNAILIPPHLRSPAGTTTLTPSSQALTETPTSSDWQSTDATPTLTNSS
# Sequence of CDK4-cyclinD1 (P11802 whole entry): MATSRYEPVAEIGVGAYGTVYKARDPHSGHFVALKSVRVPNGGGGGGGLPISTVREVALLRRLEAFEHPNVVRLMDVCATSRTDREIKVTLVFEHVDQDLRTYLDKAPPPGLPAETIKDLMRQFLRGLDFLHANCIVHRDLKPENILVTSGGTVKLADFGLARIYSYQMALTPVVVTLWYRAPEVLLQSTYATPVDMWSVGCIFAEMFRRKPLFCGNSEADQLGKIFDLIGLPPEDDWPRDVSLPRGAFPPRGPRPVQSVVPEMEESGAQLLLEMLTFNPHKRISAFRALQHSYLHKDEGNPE
# Sequence of CDK4-cyclinD1 (P24385 whole entry partner): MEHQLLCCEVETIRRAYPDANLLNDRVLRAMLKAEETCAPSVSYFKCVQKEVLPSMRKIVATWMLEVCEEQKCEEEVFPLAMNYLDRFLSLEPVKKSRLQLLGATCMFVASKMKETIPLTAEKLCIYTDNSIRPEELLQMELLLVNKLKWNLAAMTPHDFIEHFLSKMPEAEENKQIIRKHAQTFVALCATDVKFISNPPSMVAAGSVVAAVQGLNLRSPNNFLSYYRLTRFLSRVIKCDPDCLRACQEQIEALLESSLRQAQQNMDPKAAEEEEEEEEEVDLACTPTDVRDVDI
# T2 sequence (P42338 whole entry): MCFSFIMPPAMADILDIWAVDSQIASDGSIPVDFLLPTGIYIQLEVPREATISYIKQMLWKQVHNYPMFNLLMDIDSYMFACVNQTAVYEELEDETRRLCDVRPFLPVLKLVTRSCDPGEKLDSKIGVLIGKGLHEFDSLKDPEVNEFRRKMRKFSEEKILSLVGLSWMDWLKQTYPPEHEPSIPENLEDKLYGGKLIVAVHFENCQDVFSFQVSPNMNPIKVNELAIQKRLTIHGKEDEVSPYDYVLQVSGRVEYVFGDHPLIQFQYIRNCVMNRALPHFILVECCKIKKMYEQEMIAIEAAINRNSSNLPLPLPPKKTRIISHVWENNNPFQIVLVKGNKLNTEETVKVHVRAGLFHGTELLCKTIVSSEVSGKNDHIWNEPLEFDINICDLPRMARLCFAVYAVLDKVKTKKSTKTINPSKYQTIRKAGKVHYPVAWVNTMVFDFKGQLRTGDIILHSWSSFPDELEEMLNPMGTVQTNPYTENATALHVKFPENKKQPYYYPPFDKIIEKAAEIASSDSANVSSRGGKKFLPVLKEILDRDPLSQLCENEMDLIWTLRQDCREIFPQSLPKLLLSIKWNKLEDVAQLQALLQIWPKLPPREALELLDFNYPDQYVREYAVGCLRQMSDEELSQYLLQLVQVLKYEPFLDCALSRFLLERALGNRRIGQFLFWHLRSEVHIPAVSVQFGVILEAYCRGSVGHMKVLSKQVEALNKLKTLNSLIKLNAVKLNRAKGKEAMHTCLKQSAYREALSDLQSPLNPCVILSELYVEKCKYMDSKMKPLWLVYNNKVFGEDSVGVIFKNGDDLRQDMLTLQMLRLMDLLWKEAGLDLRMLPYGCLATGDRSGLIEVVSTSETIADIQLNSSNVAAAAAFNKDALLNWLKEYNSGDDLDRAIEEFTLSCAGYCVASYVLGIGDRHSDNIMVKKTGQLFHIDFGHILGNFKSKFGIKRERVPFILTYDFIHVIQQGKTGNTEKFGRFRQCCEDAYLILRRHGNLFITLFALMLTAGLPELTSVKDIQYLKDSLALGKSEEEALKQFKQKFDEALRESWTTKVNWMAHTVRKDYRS
Compound,remaining binding at 1 µM (CDK4-cyclinD1),remaining binding at 1 µM (CSNK1G2),remaining binding at 1 µM (GSK3A),remaining binding at 1 µM (MAP3K3),remaining binding at 1 µM (PIK3CB),remaining binding at 1 µM (PIK3CD),remaining binding at 1 µM (RIOK1),remaining binding at 1 µM (VRK2)
"CNc1c(-c2cnn([C@H]3CCN(C(C)=O)C[C@@H]3F)c2)cnc2[nH]cc(Cl)c12 [Compound 77, 1-((3S,4S)-4-(4-(3-chloro-4-(methylamino)-1H-pyrrolo[2,3-b]pyridin-5-yl)-1H-pyrazol-1-yl)-3-fluoropiperidin-1-yl)ethan-1-one]",74%,81%,98%,44%,100%,85%,0%,66%
"O=C(c1ccc(-c2cnc3[nH]cc(Cl)c3c2NC2CCCC2)cc1)N1CCC(N2CCOCC2)CC1 [Compound 101, (4-(3-chloro-4-(cyclopentylamino)-1H-pyrrolo[2,3-b]pyridin-5-yl)phenyl)(4-morpholinopiperidin-1-yl)methanone]",100%,73%,42%,47%,100%,100%,11%,100%
"CNc1c(-c2ccc(C(=O)N3CCC(N4CCOCC4)CC3)cc2)cnc2[nH]cc(Cl)c12 [Compound 96, (4-(3-chloro-4-(methylamino)-1H-pyrrolo[2,3-b]pyridin-5-yl)phenyl)(4-morpholinopiperidin-1-yl)methanone]",73%,93%,65%,51%,100%,84%,0.15%,79%
